Like-named read-outs stand apart in the source and are kept apart here.
Experiments:
Assay type in all cases: cell-based
NU-DHL-1 = assay: CellTiterGlo viability, DLBCL cell line; details: single agent, 2 days; for IC50: read-out: Abs IC50
Method: (§6) In addition, all media contained penicillin (100 IU/ml), streptomycin (100 μg/ml) and L-glutamine (2 mM). Unless otherwise mentioned, culture media and supplements were from Amimed/Bioconcept (Allschwil, Switzerland).
(§7) Cell lines were cultured at 37° C. in a humidified atmosphere containing 5% CO2 and expanded in T-75 flasks. In all cases cells were thawed from frozen stocks, expanded through ≥1 passage using appropriate dilutions, counted and assessed for viability using a CASY cell counter (Omni Life Science, Bremen, Germany) prior to plating 25 ul/well at the densities indicated in Table 1 into 384-well plates (Corning).
(§8) Stock solutions of compounds were prepared at a concentration of 10 mM in DMSO (Sigma) and stored at −20° C. Where necessary to afford a full dose-response curve, the stock solutions were pre-diluted in DMSO to 1′000-fold the desired start concentration (see Table 2). On the day after cell seeding, eight 2.5-fold serial dilutions of each compound were dispensed, either individually or in all possible permutations in a checkerboard fashion, directly into the cell assay plates using a non-contact 300D Digital Dispenser (ILCAN, Mannedorf, Switzerland) as outlined in FIG. 4. The final concentration of DMSO was 0.2% in all wells.
(§9) Effects of the single agents as well as their checkerboard combinations on cell viability were assessed after 2 days of incubation at 37° C./5% CO2 by quantification of cellular ATP levels using CellTiterGlo (Promega, Madison, Wis., USA) at 25 μL reagent/well and n=2 replicate plates per condition. Luminescence was quantified on a M1000 multipurpose platereader (ILCAN, Mannedorf, Switzerland). The number/viability of cells at time of compound addition was likewise assessed and used to assess the degree of the population doubling time of a particular cell line.
(§10) Single agent IC50s were calculated using standard four-parametric curve fitting. […] IC50 are defined as the compound concentration at which the CTG signal is reduced to 50% of that measured for the vehicle (DMSO) control.

Pfeiffer = assay: CellTiterGlo viability, DLBCL cell line; details: single agent, 2 days; for IC50: read-out: Abs IC50
Method: as §6, §7, §8, §9, §10

RL = assay: CellTiterGlo viability, DLBCL cell line; details: single agent, 2 days; for IC50: read-out: Abs IC50
Method: as §6, §7, §8, §9, §10

SU-DHL-6 = assay: CellTiterGlo viability, DLBCL cell line; details: single agent, 2 days; for IC50: read-out: Abs IC50
Method: as §6
Cell lines were cultured at 37° C. in a humidified atmosphere containing 5% CO2 and expanded in T-75 flasks. In all cases cells were thawed from frozen stocks, expanded through ≥1 passage using appropriate dilutions, counted and assessed for viability using a CASY cell counter (Omni Life Science, Bremen, Germany) prior to plating 25 ul/well at the densities indicated in Table 1 into 384-well plates (Corning). All cell lines were determined to be free of mycoplasma contamination by PCR assay performed at Idexx Radii (Columbia, Mo., USA) and misidentification ruled out by assessment of a panel of 48 Small Nucleotide Polymorphisms (SNPs) at Asuragen (Austin, Tex., USA) or in-house.
as §8, §9, §10

Kelly = assay: CellTiterGlo viability, neuroblastoma cell line; details: single agent, 2 days
Method: (§1) In addition, all media contained penicillin (100 IU/ml), streptomycin (100 μg/ml) and L-glutamine (2 mM). […] In all cases cells were thawed from frozen stocks, expanded through ≥1 passage using appropriate dilutions, counted and assessed for viability using a CASY cell counter prior to plating 150 ul/well at the densities indicated in Table 6 into 96-well plates. All cell lines were determined to be free of mycoplasma contamination in-house. Stock solutions of compounds were prepared at a concentration of 5 mM in DMSO and stored at −20° C. In order to analyse the activity of the compounds as single agents, cells were seeded and treated with nine 3.16-fold serial dilutions of each compound dispensed individually directly into the cell assay plates. […] Two independent experiments, each one performed in duplicates were performed. […]. Luminescence was quantified on a multipurpose platereader. Single agent IC50s were calculated using standard four-parametric curve fitting. […] Identical experiments were performed to assess potential synergistic interactions between compound combinations. […] All calculations were performed using Chalice TM Bioinformatics Software.

LAN-6 = assay: CellTiterGlo viability, neuroblastoma cell line; details: for IC50 / Max Inh (Compound 3: Mean of Max Inh): LAN-6, single agent, 3 days
Method: as §1

NB1 = assay: CellTiterGlo viability, neuroblastoma cell line; details: single agent, 2 days
Method: as §1

NBL-S = assay: CellTiterGlo viability, neuroblastoma cell line; details: single agent, 3 days
Method: as §1

SH-SY5Y = assay: CellTiterGlo viability, neuroblastoma cell line; details: single agent, 2 days
Method: as §1

SIMA = assay: CellTiterGlo viability, neuroblastoma cell line; details: single agent, 3 days
Method: as §1

SK-N-AS = assay: CellTiterGlo viability, neuroblastoma cell line; details: single agent, 3 days
Method: as §1

SK-N-BE = assay: CellTiterGlo viability, neuroblastoma cell line; details: single agent, 3 days
Method: as §1

SK-N-DZ = assay: CellTiterGlo viability, neuroblastoma cell line; details: single agent, 3 days
Method: as §1

SK-N-FI = assay: CellTiterGlo viability, neuroblastoma cell line; details: single agent, 2 days
Method: as §1

SK-N-SH = assay: CellTiterGlo viability, neuroblastoma cell line; details: single agent, 2 days
Method: as §1

BE-13 = assay: CellTiterGlo viability, T-ALL cell line; details: single agent, 72 h
Method: (§2) In addition, all media contained penicillin (100 IU/ml), streptomycin (100 μg/ml) and L-glutamine (2 mM). Cell lines were cultured at 37° C. in a humidified atmosphere containing 5% CO2 and expanded in T-150 flasks. In all cases cells were thawed from frozen stocks, expanded through ≥1 passage using appropriate dilutions, counted and assessed for viability using a CASY cell counter prior to plating 150 ul/well at the densities indicated in Table 9 into 96-well plates. All cell lines were determined to be free of mycoplasma contamination in-house.
(§3) Stock solutions of compounds were prepared at a concentration of 5 mM in DMSO and stored at −20° C. In order to analyse the activity of the compounds as single agents, cells were seeded and treated with nine 2-fold serial dilutions of each compound dispensed individually directly into the cell assay plates. Effects of the compounds on cell viability were assessed after 3 days of incubation at 37° C./5% CO2 by quantification of cellular ATP levels using CellTiterGlo at 75 μL reagent/well. All the conditions were tested in triplicates. Luminescence was quantified on a multipurpose plate reader. Single agent IC50s were calculated using standard four-parametric curve fitting. IC50 is defined as the compound concentration at which the CTG signal is reduced to 50% of that measured for the vehicle (DMSO) control.
(§4) In order to analyse the activity of the compounds in combination, cells were seeded and treated with seven or eight 3.16-fold serial dilutions of each compound dispensed, either individually or in all possible permutations in a checkerboard fashion, directly into the cell assay plates as indicated in FIG. 1. Effects of the single agents as well as their checkerboard combinations on cell viability were assessed after 3 days of incubation at 37° C./5% CO2 by quantification of cellular ATP levels using CellTiterGlo at 75 μL reagent/well. For B-ALL cell lines, two independent experiments, each one performed in duplicates, were performed. For T-ALL cell lines, one experiment performed in triplicate was performed. Luminescence was quantified on a multipurpose plate reader.
(§5) Potential synergistic interactions between compound combinations were assessed using the Excess Inhibition 2D matrix according to the Loewe additivity model and are reported as Synergy Score (Lehar et al, Nat Biotechnol. 2009 July; 27(7): 659-666). All calculations were performed using Chalice TM Bioinformatics Software available in Horizon website. The doubling time indicated in Table 9 is the mean of the doubling time obtained in the different passages (in T-150 flasks) performed from the thawing of the cells to their seeding in the 96-well plates.

CML-T1 = assay: CellTiterGlo viability, T-ALL cell line; details: single agent, 72 h
Method: as §2, §3, §4, §5

DND-41 = assay: CellTiterGlo viability, T-ALL cell line; details: 72 h
Method: as §2, §3, §4, §5

HPB-ALL = assay: CellTiterGlo viability, T-ALL cell line; details: single agent, 72 h
Method: as §2, §3, §4, §5

MOLT-4 = assay: CellTiterGlo viability, T-ALL cell line; details: single agent, 72 h
Method: as §2, §3, §4, §5

TALL-104 = assay: CellTiterGlo viability, T-ALL cell line; details: single agent, 72 h
Method: as §2, §3, §4, §5

SMILES: COc1ccccc1-c1nccc(COc2ccccc2C[C@@H](Oc2ncnc3sc(-c4ccc(F)cc4)c(-c4ccc(OCCN5CCN(C)CC5)c(Cl)c4C)c23)C(=O)O)n1 [Compound 3, (2R)-2-{[(5Sa)-5-{3-chloro-2-methyl-4-[2-(4-methylpiperazin-1-yl)ethoxy]phenyl}-6-(4-fluorophenyl)thieno[2,3-d]pyrimidin-4-yl]oxy}-3-(2-{[2-(2-methoxyphenyl)pyrimidin-4-yl]methoxy}phenyl)propanoic acid]
- Max Inh (NU-DHL-1): 98.1%
- IC50 (NU-DHL-1): 0.0579 µM
- Max Inh (Pfeiffer): 82.7%
- IC50 (Pfeiffer): 0.0426 µM
- Max Inh (RL): 95.4%
- IC50 (RL): 3.03 µM
- Max Inh (SU-DHL-6): 99.1%
- IC50 (SU-DHL-6): 0.00213 µM
- IC50 (Kelly): 0.031 µM
- Max Inh (Compound 3: Mean of Max Inh) (Kelly): 99%
- IC50 (LAN-6): > 2 µM
- Max Inh (Compound 3: Mean of Max Inh) (LAN-6): 17.5%
- growth inhibition (LAN-6; LAN-6 cells, each compound at 630 nM (FIG. 10, upper left panel)): 12%
- IC50 (NB1): 0.123 µM
- Max Inh (Compound 3: Mean of Max Inh) (NB1): 99%
- IC50 (NBL-S): > 2 µM
- Max Inh (Compound 3: Mean of Max Inh) (NBL-S): 13%
- IC50 (SH-SY5Y): > 3 µM
- Max Inh (Compound 3: Mean of Max Inh) (SH-SY5Y): 24%
- IC50 (SIMA): > 2 µM
- Max Inh (Compound 3: Mean of Max Inh) (SIMA): 0%
- IC50 (SK-N-AS): 0.26 µM
- Max Inh (Compound 3: Mean of Max Inh) (SK-N-AS): 84%
- IC50 (SK-N-BE): > 2 µM
- Max Inh (Compound 3: Mean of Max Inh) (SK-N-BE): 27%
- IC50 (SK-N-DZ): > 2 µM
- Max Inh (Compound 3: Mean of Max Inh) (SK-N-DZ): 2.5%
- IC50 (SK-N-FI): > 3 µM
- Max Inh (Compound 3: Mean of Max Inh) (SK-N-FI): 33%
- IC50 (SK-N-SH): > 3 µM
- Max Inh (Compound 3: Mean of Max Inh) (SK-N-SH): 40%
- IC50 (BE-13): 0.015 µM
- IC50 (CML-T1): 6 µM
- IC50 (DND-41; single agent): 7 µM
- IC50 (HPB-ALL): 0.66 µM
- IC50 (MOLT-4): 0.026 µM
- IC50 (TALL-104): 0.044 µM

SMILES: Cl.O=C(c1cc(-c2cc3c(cc2C(=O)N2Cc4ccccc4C[C@H]2CN2CCOCC2)OCO3)n2c1CCCC2)N(c1ccccc1)c1ccc(O)cc1 [Compound 1, HCl, N-(4-hydroxyphenyl)-3-{6-[((3S)-3-(4-morpholinylmethyl)-3,4-dihydro-2(1H)-isoquinolinyl)carbonyl]-1,3-benzodioxol-5-yl}-N-phenyl-5,6,7,8-tetrahydro-1-indolizine carboxamide hydrochloride]
- IC50 (NU-DHL-1; Homo sapiens, 48 h): 0.0515 µM
- Max Inh (NU-DHL-1): 102.1%
- IC50 (Pfeiffer; Homo sapiens, 48 h): 4.5 µM
- Max Inh (Pfeiffer): 92.0%
- IC50 (RL; Homo sapiens, 48 h): 0.281 µM
- Max Inh (RL): 99.0%
- IC50 (SU-DHL-6; Homo sapiens, 48 h): 0.614 µM
- Max Inh (SU-DHL-6): 101.0%
- IC50 (Kelly; 48 h): > 3 µM
- Max Inh (Compound 3: Mean of Max Inh) (Kelly): 27%
- Max Inh (Compound 3: Mean of Max Inh) (LAN-6): 26%
- IC50 (LAN-6; Neuroblastoma cell, 72 h): > 2 µM
- inhibition at 0.63 µM (LAN-6; Neuroblastoma cell, LAN-6 cells, each compound at 630 nM (FIG. 10, upper left panel), read-out: growth inhibition): 0%
- IC50 (NB1; Homo sapiens, 48 h): > 3 µM
- Max Inh (Compound 3: Mean of Max Inh) (NB1): 11%
- IC50 (NBL-S; Neuroblastoma cell, 72 h): > 2 µM
- Max Inh (Compound 3: Mean of Max Inh) (NBL-S): 10%
- IC50 (SH-SY5Y; Homo sapiens, 48 h): > 3 µM
- Max Inh (Compound 3: Mean of Max Inh) (SH-SY5Y): 10%
- IC50 (SIMA; Neuroblastoma cell, 72 h): > 2 µM
- Max Inh (Compound 3: Mean of Max Inh) (SIMA): 48.5%
- IC50 (SK-N-AS; Homo sapiens, 72 h): > 1 µM
- Max Inh (Compound 3: Mean of Max Inh) (SK-N-AS): 9%
- IC50 (SK-N-BE; Neuroblastoma cell, 72 h): > 2 µM
- Max Inh (Compound 3: Mean of Max Inh) (SK-N-BE): 27%
- IC50 (SK-N-DZ; Homo sapiens, 72 h): > 2 µM
- Max Inh (Compound 3: Mean of Max Inh) (SK-N-DZ): 10%
- IC50 (SK-N-FI; Homo sapiens, 48 h): > 3 µM
- Max Inh (Compound 3: Mean of Max Inh) (SK-N-FI): 6%
- IC50 (SK-N-SH; Homo sapiens, 48 h): > 3 µM
- Max Inh (Compound 3: Mean of Max Inh) (SK-N-SH): 15%
- IC50 (BE-13): 6.7 µM
- IC50 (CML-T1): 15 µM
- IC50 (DND-41; DND41, single agent): 9 µM
- IC50 (HPB-ALL; Homo sapiens, HPBALL): 4.5 µM
- IC50 (MOLT-4; Homo sapiens): 3.29 µM
- IC50 (TALL-104): 15.9 µM
